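1) Cells in 96-well plates. 2) Compound, 48 h, 5 concentrations. 3) Linear interpolation between surrounding doses. 4) Unreached endpoint = highest concentration. TGI marks complete inhibition of growth.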
Key:
Assay in all cases: NCI tumour cell line growth inhibition, 48 h
BT-549 breast = tested on: BT-549 breast
COLO 205 colon = tested on: COLO 205 colon
EKVX NSCLC = tested on: EKVX NSCLC
K-562 leukemia = tested on: K-562 leukemia
MOLT-4 leukemia = tested on: MOLT-4 leukemia
NCI/ADR-RES ovarian = tested on: NCI/ADR-RES ovarian
OVCAR-3 ovarian = tested on: OVCAR-3 ovarian
OVCAR-8 ovarian = tested on: OVCAR-8 ovarian
PC-3 prostate = tested on: PC-3 prostate
SF-295 CNS = tested on: SF-295 CNS
SK-MEL-5 melanoma = tested on: SK-MEL-5 melanoma
SR leukemia = tested on: SR leukemia
UACC-62 melanoma = tested on: UACC-62 melanoma

SMILES	TGI (BT-549 breast) [µM]	TGI (COLO 205 colon) [µM]	TGI (EKVX NSCLC) [µM]	TGI (K-562 leukemia) [µM]	TGI (MOLT-4 leukemia) [µM]	TGI (NCI/ADR-RES ovarian) [µM]	TGI (OVCAR-3 ovarian) [µM]	TGI (OVCAR-8 ovarian) [µM]	TGI (PC-3 prostate) [µM]	TGI (SF-295 CNS) [µM]	TGI (SK-MEL-5 melanoma) [µM]	TGI (SR leukemia) [µM]	TGI (UACC-62 melanoma) [µM]
COC(=O)[C@H](Cc1ccccc1)NC(=O)[C@H](Cc1ccccc1)NC(=O)[C@@H]1CCCN1C(=O)N[C@H]1C2C=CC(C2)C1C(=O)N1CCC[C@H]1C(=O)N[C@@H](C)C(=O)N[C@H](C(=O)OC)C(C)C (stereo not given in full)	> 100	> 100	> 100	> 100	85.6	> 100	> 100	> 100	> 100	> 100	> 100	> 100	> 100
CCC1(C)N=C(c2cnccn2)NN1c1ccc(Cl)cc1 (stereo not given)	> 100	> 100	> 100	> 100	> 100	> 100	> 100	> 100	> 100	> 100	> 100	76.2	> 100
Nn1c(CCCCCCCCc2nnc(COc3ccc(Cl)cc3)n2N)nnc1COc1ccc(Cl)cc1	> 100	> 100	> 100	> 100	> 100	> 100			> 100	> 100	> 100		> 100
N#Cc1nc(-c2cccs2)oc1N	> 100	> 100	> 100	> 100	> 100	> 100	> 100	> 100	> 100	> 100	> 100	> 100	> 100
CCOC(=O)/C1=C(\C)N(c2ccc(C)cc2)C(=O)c2ccccc2C(=O)c2c(OC(C)=O)ccc(OC(C)=O)c21	90.2	26.3		38.7	21.4	53.9	39.3	> 100	> 100	43.2	> 100	35.7	42.1
CCC1(C(=O)OC(C)(C)C)OC12C(C)CCCC2C (stereo not given)	> 100	63	> 100	52.8	41.2	> 100	> 100	> 100	> 100	> 100	> 100	38.3	> 100
CCOC(=O)/C=C(\C(=O)OCC)n1cc(C)c(=O)n(Cc2cnnn2CCCCOC(C)=O)c1=O	22.6		25.2	> 35.9	> 25.6	35.8	39.1	15.6	> 71.3	> 76	> 52.2	5.86	31.7
CCCSc1ccc2[nH]c(/N=C/c3ccco3)cc2c1	> 100	49.7	68.8			> 100	> 100	> 100	> 100	> 100	32.6	35.7	> 100
C1CNCCNCCN1	> 100	> 100	> 100	> 100	> 100	> 100	> 100	> 100	> 100	> 100	> 100	> 100	> 100
CCC(C#N)NC(=O)NC(C#N)CC (stereo not given)	> 100	> 100	> 100	> 100	> 100	> 100	> 100	> 100	> 100	> 100	> 100	> 100	> 100
CN(NC(=O)c1cccs1)C1=NCCCN1	> 100	> 100	> 100	> 100	> 100	> 100	> 100	> 100	> 100	> 100	> 100	> 100	> 100
CC1Cn2c(nc3ccccc32)NC1=O (stereo not given)	> 100	> 100	> 100	> 100	> 100	> 100	> 100	> 100	> 100	> 100	> 100	> 100	> 100
O=c1c2c([N+](=O)[O-])cccc2nc2[nH]c3ccccc3n12	51.1	> 75	> 75	> 75	> 75	> 75	70.3	31	> 75	> 75	> 75	> 75	> 75
O=c1nc2c(c(-c3ccccc3Cl)[nH]1)COC/C2=C\c1ccccc1Cl	> 100	> 100	97.4		> 100	> 100	> 100	> 100	> 100	> 100	> 100		> 100
CCN1C(=O)C(=C/C=C/c2ccc([N+](=O)[O-])cc2)C(=O)N(CC)C1=S	32.5	> 100	62.7	48.4	> 100	45.2	32.9	39.7	34.6	> 100	42.8		34.7
CC(=O)O[C@H]1C#C/C=C\C#CC[C@@H]2C(=O)N[C@@H]12	> 86.5	> 100	> 100	> 100	> 100	> 75.9	> 100	73.1	> 100	> 100	> 100		> 100
COc1cc(C2SCC(=O)N2c2ccc(-c3ccc(-n4c(-c5ccccc5)nc5ccccc5c4=O)cc3)cc2)cc(OC)c1OC (stereo not given)	55.4	> 100	> 100	> 100	> 100	> 100	80.9	> 100	41.5		> 100	> 100	> 100
NC(=O)NNC(=O)c1nc[nH]c1[N+](=O)[O-]	> 100	> 100	> 100	> 100	> 100	> 100	> 100	> 100	> 100		> 100		> 100
